Data taken from patent US20110212899A1, “Corneal Neuritogenesis Promoter Containing Pacap and Its Derivative” (priority 2004, published 2011).
Where no end group is shown, it is not given here.

How the values were obtained:
Assay type in all cases: cell-based
[1] = tested on: cultured rabbit trigeminal nerve cells; assay: Promoting effect on neuritogenesis in cultured rabbit trigeminal nerve cells (1) (Test Example 1); settings: final concentration 1 μM, cultured for 48 hours; control group 24.1%; p<0.001 vs non-addition group
Excerpt: Japanese white rabbits (2 to 3 days old) purchased from Kitayama Labes Co., Ltd. were used.
Rabbit trigeminal nerve cells were isolated according to a method reported by Chan et al. (Kwan Y. Chan and Richard H. Haschke, Exp. Eye Res. 41: 687-699, 1985). The rabbit was subjected to cardiac perfusion with physiological saline under ether anesthesia. A trigeminal ganglion was excised from the rabbit, and then dispersed in a nerve dispersion liquid (Sumitomo Bakelite Co., Ltd.) to prepare trigeminal nerve cells. The trigeminal nerve cells were cultured in Neurobasal medium (Invitrogen Corp) supplemented with B27 Supplement (Invitrogen Corp; final concentration: 2% v/v) and L-glutamine (Invitrogen Corp; final concentration: 1 mM) under 5% CO2 and 95% air at a humidity of 100% and a temperature of 37° C. […]
For evaluating neuritogenesis in the cultured rabbit trigeminal nerve cells, the lengths of the longest neurite and the major axis of the cell body in the stained cell images scanned into the computer were measured using image analysis software (Image-Pro Plus ver. 4.0, Planetron, Inc.) The cells in 3 wells for each group were measured. […] The proportion (%) of the neurite forming cells in the total cell number was calculated (Otori, Y., Wei, J. Y., Barnstable, C. J., Invest. Opthalmol. Vis. Sic., (1998)39, 972-981).

[2] = tested on: excised rabbit lacrimal gland; assay: Promoting effect on protein secretion from an excised lacrimal gland (1) (Test Example 3)
Description: A lacrimal gland was excised from a rabbit and then treated with PACAP27 or peptide 17. Pharmacological effects of PACAP27 and peptide 17 on an increase in the protein secretion amount were examined.
(a) Purified water was added to sodium chloride (137.92 g), potassium chloride (7.01 g), calcium chloride dihydrate (3.53 g) and magnesium chloride hexahydrate (1.2 g) so that the total volume was 1000 mL (solution 1). Purified water was added to potassium dihydrogen phosphate (8.17 g) so that the total volume was 500 mL (solution 2). The solution 1 (50 mL) and the solution 2 (10 mL) were added to 900 mL of purified water, and in the resulting solution were dissolved glucose (2.07 g) and sodium hydrogen carbonate (2.1 g). The total volume of the resulting solution was adjusted to 1000 mL (pH about 7.4), which was used as a culture solution. A mixed gas of 95% oxygen and 5% carbon dioxide was allowed to pass through the culture solution.
(b) PACAP27 or peptide 17 was dissolved in the culture solution at a concentration of 10^−7 M, which was used as a test substance solution. Carbachol (Nacalai Tesque, Inc.), which has muscarinic agonist activity, was dissolved in the culture solution at a concentration of 10^−4 M, which was used as a control of the drugs (the carbachol-addition group). […]
(a) The section sample in a stationary state was incubated at 37° C. for 20 minutes in 0.5 mL of a fresh culture solution. […] The amount of protein in the culture solution was determined by using a protein staining reagent (DC Protein Assay Reagent, Bio Rad), and was converted into the protein secretion amount per 1 mg of the wet sample. […]
(b) The culture solution of the section sample after incubation obtained in (a) was replaced by 0.5 mL of the test substance solution. […] The protein amount in the collected solution was determined by using the protein staining reagent. In the same way, as a control group, the section sample was incubated in the culture solution which was replaced by a fresh culture solution and the protein amount in the culture solution was determined.

[3] = tested on: excised rabbit lacrimal gland; assay: Promoting effect on protein secretion from an excised lacrimal gland (2) (Test Example 5); settings: carbachol 10^−4 M, incubated 60 minutes; p<0.05
Description: A lacrimal gland was excised from a rabbit and incubated in a solution containing PACAP27 or peptide 24, and changes in the amount of secreted protein were examined as lacrimal gland stimulating activity.
Japanese white rabbits with a body weight of 1.5 to 2.0 kg purchased from Fukusaki Rabbit warren were used. The animals were each put in separate cages placed in a room wherein a temperature of 23±3° C. and a humidity of 55±10% were kept and a light was on for 12 hours per day (lighting at 8:00 and lights-out at 20:00), and raised after arrival until the final day of the test. The animals were given 100 g of solid feed (Labo R Stock, Nosan Corporation) per day, and could freely have tap water.
PACAP27 and peptide 24 were used as test substances. Test substance solutions were prepared as follows. […]
The section sample in a stationary state was incubated in 0.5 mL of a fresh incubation solution at 37° C. for 20 minutes under a mixed gas atmosphere of 95% oxygen and 5% carbon dioxide. After completion of the incubation, the incubation solution was collected, and the protein amount in the solution was determined by using a protein staining reagent (DC Protein Assay Reagent, Bio Rad). […] The incubation solution was collected, and the protein amount in the incubation solution was determined. […]

Compound	proportion (%) of the neurite forming cells in the total cell number [1] [%]	duration of the action of the drug compared with the carbachol-addition group ([2]; 10^−7 M vs carbachol 10^−4 M)	protein secretion rate of excised lacrimal gland ([2]; 10^−7 M, at 20 minutes after initiation of the treatment and thereafter, p<0.05 vs control)	protein secretion rate of excised lacrimal gland ([2]; carbachol 10^−4 M (control of the drugs))	protein secretion rate of excised lacrimal gland compared with control group [3]
His-Ser-Asp-Ala-Ile-Phe-Thr-Asp-Ser-Tyr-Ser-Arg-Tyr-Arg-Arg-Gln-Leu-Ala-Val-Arg-Arg-Tyr-Leu-Ala-Ala-Val-Leu-Gly-Arg-Arg-OH (HSDAIFTDSYSRYRRQLAVRRYLAAVLGRR-OH) [Peptide 17]	54.1	lasted longer	significantly increased	–	–
C[N+](C)(C)CCOC(N)=O [carbachol, Carbachol, reference compound]	–	–	–	significant increase	significant increase
